In PubChem BioAssay (NCI):
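The concentration for 50% growth inhibition is given as GI50. Definition used: TGI = concentration required for complete inhibition of growth.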

Assays:
Experiment in all cases: NCI tumour cell line growth inhibition, 384-well format
[1] = test system: 786-0 renal
[2] = test system: A498 renal
[3] = test system: A549 NSCLC
[4] = test system: CCRF-CEM leukemia
[5] = test system: DU-145 prostate
[6] = test system: HCC-2998 colon
[7] = test system: HCT-116 colon
[8] = test system: HCT-15 colon
[9] = test system: HOP-92 NSCLC
[10] = test system: K-562 leukemia
[11] = test system: LOX IMVI melanoma
[12] = test system: MALME-3M melanoma
[13] = test system: MDA-MB-435 melanoma
[14] = test system: MDA-MB-468 breast
[15] = test system: MOLT-4 leukemia
[16] = test system: NCI-H322M lung
[17] = test system: NCI-H460 NSCLC
[18] = test system: NCI-H522 lung
[19] = test system: OVCAR-3 ovarian
[20] = test system: OVCAR-4 ovarian
[21] = test system: OVCAR-5 ovarian
[22] = test system: SF-295 CNS
[23] = test system: SF-539 CNS
[24] = test system: SK-MEL-28 melanoma
[25] = test system: SK-MEL-5 melanoma
[26] = test system: SK-OV-3 ovarian
[27] = test system: SN12C renal
[28] = test system: SNB-19 CNS
[29] = test system: T-47D breast
[30] = test system: TK-10 renal
[31] = test system: U251 glioblastoma
[32] = test system: UACC-257 melanoma
[33] = test system: ACHN renal
[34] = test system: BT-549 breast
[35] = test system: CAKI-1 renal
[36] = test system: COLO 205 colon
[37] = test system: EKVX NSCLC
[38] = test system: HL-60(TB) leukemia
[39] = test system: HOP-62 NSCLC
[40] = test system: HS 578T breast
[41] = test system: HT29 colon
[42] = test system: IGROV1 ovarian
[43] = test system: KM12 colon
[44] = test system: M14 melanoma
[45] = test system: MCF7 breast
[46] = test system: MDA-MB-231 breast
[47] = test system: NCI-H226 lung
[48] = test system: NCI-H23 lung
[49] = test system: NCI/ADR-RES ovarian
[50] = test system: OVCAR-8 ovarian
[51] = test system: PC-3 prostate
[52] = test system: RXF 393 renal
[53] = test system: SF-268 CNS
[54] = test system: SK-MEL-2 melanoma
[55] = test system: SNB-75 CNS
[56] = test system: SR leukemia
[57] = test system: SW-620 colon
[58] = test system: UACC-62 melanoma
[59] = test system: UO-31 renal

SMILES: CC#CC(=O)N[C@H]1CCCN(c2c(F)cc(C(N)=O)c3[nH]c(C)c(C)c23)C1
- GI50 [1]: 15.9 µM
- TGI [1]: 33.2 µM
- GI50 [2]: 14.7 µM
- TGI [2]: 28.4 µM
- GI50 [3]: 18.1 µM
- TGI [3]: 37.9 µM
- GI50 [4]: 16.9 µM
- TGI [4]: 30.8 µM
- GI50 [5]: 18.1 µM
- TGI [5]: 37.2 µM
- GI50 [6]: 11.1 µM
- TGI [6]: 23.2 µM
- GI50 [7]: 13.8 µM
- TGI [7]: 27.3 µM
- GI50 [8]: 10.8 µM
- TGI [8]: 22.9 µM
- GI50 [9]: 15 µM
- TGI [9]: 33.7 µM
- GI50 [10]: 15 µM
- TGI [10]: 28.9 µM
- GI50 [11]: 15.4 µM
- TGI [11]: 28.9 µM
- GI50 [12]: 18 µM
- TGI [12]: 32 µM
- GI50 [13]: 17.2 µM
- TGI [13]: 34.1 µM
- GI50 [14]: 2880 nM
- TGI [14]: 11.1 µM
- GI50 [15]: 14 µM
- TGI [15]: 27.1 µM
- GI50 [16]: 16.2 µM
- TGI [16]: 30.9 µM
- GI50 [17]: 15.8 µM
- TGI [17]: 29.6 µM
- GI50 [18]: 4.54 µM
- TGI [18]: 17.5 µM
- GI50 [19]: 14.5 µM
- TGI [19]: 28 µM
- GI50 [20]: 13.4 µM
- TGI [20]: 26.6 µM
- GI50 [21]: 16.9 µM
- TGI [21]: 38.4 µM
- GI50 [22]: 13.9 µM
- TGI [22]: 26.9 µM
- GI50 [23]: 15.3 µM
- TGI [23]: 28.8 µM
- GI50 [24]: 18.5 µM
- TGI [24]: 33.1 µM
- GI50 [25]: 13.8 µM
- TGI [25]: 26.8 µM
- GI50 [26]: 14.4 µM
- TGI [26]: 34.3 µM
- GI50 [27]: 14.9 µM
- TGI [27]: 28.9 µM
- GI50 [28]: 17.3 µM
- TGI [28]: 32.4 µM
- GI50 [29]: 5.36 µM
- TGI [29]: 18.6 µM
- GI50 [30]: 21 µM
- TGI [30]: 58.6 µM
- GI50 [31]: 17.3 µM
- TGI [31]: 31.4 µM
- GI50 [32]: 11.5 µM
- TGI [32]: 23.7 µM

SMILES: O=C(Nc1ccc(O)c(NS(=O)(=O)c2ccc(F)cc2)c1)c1ccc(-c2ccccc2)cc1
- GI50 [1]: 3.74 µM
- TGI [1]: 12.6 µM
- GI50 [2]: 3.57 µM
- TGI [2]: 15.1 µM
- GI50 [3]: 5.05 µM
- TGI [3]: 17 µM
- GI50 [33]: 6.99 µM
- TGI [33]: 19.7 µM
- GI50 [34]: 4.01 µM
- TGI [34]: 13.1 µM
- GI50 [35]: 5.16 µM
- TGI [35]: 17.7 µM
- GI50 [4]: 2.24 µM
- TGI [4]: 4.11 µM
- GI50 [36]: 11.5 µM
- TGI [36]: 24 µM
- GI50 [5]: 10.1 µM
- TGI [5]: 21.8 µM
- GI50 [37]: 4.13 µM
- TGI [37]: 14 µM
- GI50 [6]: 4.56 µM
- TGI [6]: 10.3 µM
- GI50 [7]: 3.71 µM
- TGI [7]: 12.7 µM
- GI50 [8]: 3.84 µM
- TGI [8]: 11.8 µM
- GI50 [38]: 1550 nM
- TGI [38]: 2910 nM
- GI50 [39]: 9.69 µM
- TGI [39]: 21.4 µM
- GI50 [9]: 4.12 µM
- TGI [9]: 14.4 µM
- GI50 [40]: 2930 nM
- TGI [40]: 15.5 µM
- GI50 [41]: 12 µM
- TGI [41]: 24.5 µM
- GI50 [42]: 3.62 µM
- TGI [42]: 12.2 µM
- GI50 [10]: 3.68 µM
- TGI [10]: 13.5 µM
- GI50 [43]: 5.26 µM
- TGI [43]: 18.3 µM
- GI50 [11]: 3.87 µM
- TGI [11]: 15 µM
- GI50 [44]: 6.4 µM
- TGI [44]: 19 µM
- GI50 [12]: 4.06 µM
- TGI [12]: 15.4 µM
- GI50 [45]: 3.87 µM
- TGI [45]: 15.4 µM
- GI50 [46]: 3.36 µM
- TGI [46]: 13.5 µM
- GI50 [13]: 7.4 µM
- TGI [13]: 20.2 µM
- GI50 [14]: 2080 nM
- TGI [14]: 7.66 µM
- GI50 [15]: 1.69 µM
- TGI [15]: 3.12 µM
- GI50 [47]: 8.98 µM
- TGI [47]: 21.1 µM
- GI50 [48]: 6.12 µM
- TGI [48]: 18.6 µM
- GI50 [16]: 4.58 µM
- TGI [16]: 16.6 µM
- GI50 [17]: 2.9 µM
- TGI [17]: 10.3 µM
- GI50 [18]: 2.3 µM
- TGI [18]: 6.5 µM
- GI50 [49]: 5.28 µM
- TGI [49]: 17.5 µM
- GI50 [19]: 2.86 µM
- TGI [19]: 10.6 µM
- GI50 [20]: 3.24 µM
- TGI [20]: 14.5 µM
- GI50 [21]: 10.2 µM
- TGI [21]: 21.9 µM
- GI50 [50]: 3.73 µM
- TGI [50]: 14.1 µM
- GI50 [51]: 3.94 µM
- TGI [51]: 14.4 µM
- GI50 [52]: 1680 nM
- TGI [52]: 4.57 µM
- GI50 [53]: 4.51 µM
- TGI [53]: 15.2 µM
- GI50 [22]: 10.5 µM
- TGI [22]: 22.4 µM
- GI50 [23]: 5.63 µM
- TGI [23]: 18.4 µM
- GI50 [54]: 10.4 µM
- TGI [54]: 22.2 µM
- GI50 [24]: 11.4 µM
- TGI [24]: 23.8 µM
- GI50 [25]: 4.13 µM
- TGI [25]: 15.3 µM
- GI50 [26]: 6.15 µM
- TGI [26]: 18.4 µM
- GI50 [27]: 7.38 µM
- TGI [27]: 19.7 µM
- GI50 [28]: 7.07 µM
- TGI [28]: 19.3 µM
- GI50 [55]: 9.53 µM
- TGI [55]: 21.2 µM
- GI50 [56]: 1650 nM
- TGI [56]: 3.17 µM
- GI50 [57]: 10.2 µM
- TGI [57]: 22 µM
- GI50 [29]: 8 µM
- TGI [29]: 20.7 µM
- GI50 [30]: 3.61 µM
- TGI [30]: 11.8 µM
- GI50 [31]: 5.41 µM
- TGI [31]: 17.1 µM
- GI50 [32]: 7.05 µM
- TGI [32]: 19.8 µM
- GI50 [58]: 4.96 µM
- TGI [58]: 17.6 µM
- GI50 [59]: 5.25 µM
- TGI [59]: 16.9 µM
